Entries after “also recorded” stand apart in the source; their conditions may differ. Where no end group is shown, it is not given here.
Legend:
ERK1/2 = experiment: Inhibition of ERK1/2 (MAPK) in PC3 cells, anti-p-ERK1/2 blot; assay type: cell-based, human
From the text: FIG. 11 illustrates Activation of EphA2 downstream signaling by EP1-Fc. PC3 cells were stimulated with the indicated concentrations of ephrinA1-Fc or EP1-Fc fusion proteins and lysed in RIPA buffer. EphA2 activation status was examined by immunoprecipiting EphA2 and blotting for phosphotyrosine or EphA2 itself (top panel). Inhibition of ERK1/2, a downstream signaling event of EphA2 characterized in our lab, was examined by blotting total cell lysates with anti-p-ERK1/2.

EphA2 [1] = molecular target: T1, EphA2 (Homo sapiens, UniProt P29317); experiment: EphA2 tyrosine phosphorylation (activation) in PC3 cells, immunoprecipitation and anti-phosphotyrosine blot; assay type: cell-based; set-up: We have previously identified EphA2 as the primary EphA kinase expressed in PC-3 cells; endogenous in cells; host or cells: PC-3 (PC3) and DU-145 cells; conditions: for EphA2 tyrosine phosphorylation: several different cell lines; for EphA2 activation (agonist function): PC-3 cells, PY99 blot
T1 sequence (P29317 24-976): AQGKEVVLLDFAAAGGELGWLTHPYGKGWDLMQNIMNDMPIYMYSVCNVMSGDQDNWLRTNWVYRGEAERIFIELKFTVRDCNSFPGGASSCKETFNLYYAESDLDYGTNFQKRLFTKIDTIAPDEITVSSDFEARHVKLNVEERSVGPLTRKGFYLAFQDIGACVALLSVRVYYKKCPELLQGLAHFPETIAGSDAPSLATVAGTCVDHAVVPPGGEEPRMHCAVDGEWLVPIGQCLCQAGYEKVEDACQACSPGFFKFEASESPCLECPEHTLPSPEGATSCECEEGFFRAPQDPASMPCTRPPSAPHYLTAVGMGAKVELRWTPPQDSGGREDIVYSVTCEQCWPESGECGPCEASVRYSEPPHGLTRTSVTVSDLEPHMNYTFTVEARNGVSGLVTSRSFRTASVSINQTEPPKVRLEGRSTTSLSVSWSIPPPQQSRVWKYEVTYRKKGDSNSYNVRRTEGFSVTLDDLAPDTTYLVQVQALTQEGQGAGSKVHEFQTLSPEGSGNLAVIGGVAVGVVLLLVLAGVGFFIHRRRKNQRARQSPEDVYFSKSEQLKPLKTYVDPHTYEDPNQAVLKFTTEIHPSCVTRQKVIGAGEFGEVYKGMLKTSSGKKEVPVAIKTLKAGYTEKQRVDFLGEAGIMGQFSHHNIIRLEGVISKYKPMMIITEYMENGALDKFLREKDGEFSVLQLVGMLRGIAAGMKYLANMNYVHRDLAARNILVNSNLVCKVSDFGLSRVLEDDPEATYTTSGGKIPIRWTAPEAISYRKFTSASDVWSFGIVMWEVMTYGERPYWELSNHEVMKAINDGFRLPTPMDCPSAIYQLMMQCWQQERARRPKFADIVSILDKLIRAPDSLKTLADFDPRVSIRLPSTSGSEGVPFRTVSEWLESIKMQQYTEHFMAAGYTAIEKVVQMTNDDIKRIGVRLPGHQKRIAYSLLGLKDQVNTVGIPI
Description: FIG. 9 illustrates EP1 is an EphA2 Kinase Agonist. PC3 cells (1×10^6 cells/ml) were stimulated with different concentrations of EP1-Fc, GST-EP1, or ephrin-A1-Fc for 10 min. EphA2 was precipitated with anti-EphA2. The immune complex was blotted for PY to detect EphA2 activation (top panel), or for EphA2 to show equal loading (lower panel). Data represents one of three similar experimental results.
FIG. 15 illustrates Identification of EP1 residues critical for EphA2 activation. Four out of five EP1 residues that align with receptor-binding regions of ephrins are critical for EphA2 activation. Mutation to alanine was performed at the indicated positions (see letters in FIG. 15 for reference), and the resultant EP1-Fc mutants were used to stimulate PC3 cells for 10 min at […] for ability to activate EphA2.
PC-3 cells were stimulated with the indicated concentration of dobutamine. EphA2 was immunoprecipitated and tested for activation status by blotting with anti-phosphotyrosine (PY99).
Cells cultured in 6 well plates at 70-80% confluence were stimulated with 0.5 μg/ml Fc, 1 μg/ml epnrinA1-Fc or 20 ng/ml HGF/SF or their combinations as indicated. After stimulation, cells were lysed in RIPA buffer (20 mM Tris, pH7.4, 125 mM NaCl, 20 mM NaF, 0.1% SDS, 10% glycerol, 0.5% sodium deoxycholate, and 1% TX-100, 0.5 mM Na3VO4) containing protease inhibitors (1 mM phenylmethylsulphonyl fluoride, and 2 μg/ml each of aprotinin and leupeptin). Cell lysates were clarified by centrifugation at 13,000 rpm for 5 min. Immunoprecipitation was carried out by adding anti-EphA2 antibody to clarified cell lysates and incubated for 1 hour at 4° C. The immunocomplex was captured using γ-bind beads (Pharmacia). Cell lysates or precipitated proteins were separated on 4-20% Tris-glycine gels (Invitrogen) and transferred to Immobilon-P PVDF membranes (Millipore). […] For quantitative analysis, band densities were measured using KODAK 1D imagine analysis software (Eastman Kodak Company).

EphA2 [2] = molecular target: T1, EphA2; experiment: Precipitation of 125I-labeled PC3 cell proteins / Western blot (binding specificity); set-up: We have previously identified EphA2 as the primary EphA kinase expressed in PC-3 cells; endogenous in cells; host or cells: PC-3 (PC3); conditions: PC3 cell lysates
Description: FIGS. 8(A-B) illustrate Specific Binding of EP1-Fc to EphA2 Receptor. A: ^125I labeling of PC3 cells. PC3 cells (10×10^6) were labeled with 125I (0.5 mCi). Then, cell lysates were incubated with EP1-Fc fusion peptide, ephrin-A1-Fc (EA1-Fc), or human Fc as indicated. Equal amount of cell lysate was used in each experimental group. […] B: Western Blotting Analysis. PC3 cell lysates were incubated with EP1-Fc fusion protein, ephrin-A1 protein, or human Fc. The immune complexes were blotted with anti-EphA2. EP1 specifically precipitated EphA2.

PC3 or pRNS-1 cells = experiment: 3H-thymidine incorporation; assay type: cell-based; conditions: overnight stimulation
Description: Subconfluent PC3 or pRNS-1 cells were stimulated with the indicated reagents overnight. Next day cells were labeled with ^3H-thymidine for 2 hours. ^3H-thymidine incorporation into isolated DNA synthesis was determined by scintillation counting.

[3] = tested on: integrin-mediated cell adhesion; experiment: Integrin-mediated cell adhesion to fibronectin; assay type: cell-based
[4] = molecular target: EphA2 kinase ligand-binding domain (Homo sapiens, UniProt P29317); experiment: BIAcore binding to immobilized EphA2 ligand-binding domain; conditions: EphA2 LBD immobilized on sensor chip
Chain of EphA2 kinase ligand-binding domain (P29317 28-206 limits assumed): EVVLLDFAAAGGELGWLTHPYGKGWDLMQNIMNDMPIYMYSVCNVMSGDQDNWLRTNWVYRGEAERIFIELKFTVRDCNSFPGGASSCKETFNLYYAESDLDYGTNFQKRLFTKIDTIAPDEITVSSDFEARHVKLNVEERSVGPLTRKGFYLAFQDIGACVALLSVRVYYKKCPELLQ
Description: A) EphA2 activation by labetalol. […] The increasing concentrations of labetalol (0, […], 1.25 mM and 2.5 mM) were injected over EphA2 kinase ligand-binding domain immobilized on the sensor chip.
A) Doxazosin activates EphA2.

EphA2 [5] = conditions: several breast cancer cell lines; cited from earlier work
GFP-PC-3 cells = experiment: PC3 xenograft growth in nude mice; assay type: in vivo; set-up: s.c. tumor growth: dose or concentration left out as unconfirmed; conditions: for s.c. tumor growth: vs human IgG
From the text: Frozen sections were stained with biotinylated rabbit anti-human Fc, and HRP-conjugated streptoavidin.

[6] = tested on: pRNS-1 prostate epithelial cells; experiment: Clonal growth, crystal violet staining; assay type: cell-based; conditions: 10 days
Description: About 80 pRNS-1 prostate epithelial cells were seeded into each well on 12-well dishes in the presence of indicated concentrations of ephrin-A1-Fc. Cells were cultured for 10 days. Clonal growth was visualized by crystal violet staining.

PC3 cells = experiment: Cell rounding; assay type: cell-based, human; conditions: 10 min
Description: PC3 cells cultured on coverslips were stimulated with the indicated concentrations of ephrinA1-Fc, EP1-Fc of Fc for 10 min. Cells were then fixed and photographed.

Compound: EphA2-binding peptide from X2CX14CX2 phage display library, SEQ ID NO: 1, RRCVWSTNVYSMEPA LFCAA (RRCVWSTNVYSMEPALFCAA) [EP1]
- mitogen-activated protein kinase (MAPK) (ERK1/2): inhibited mitogen-activated protein kinase
- EphA2 tyrosine phosphorylation (EphA2 [1]): binds to EphA2 without activating it
- specificity of binding among cell surface proteins (EphA2 [2]): EphA2 was the only cell surface protein that was targeted by EP1
- cell proliferation / growth (PC3 or pRNS-1 cells): inhibited cancer cell growth
- integrin function and cell adhesion [3]: suppressed integrin function and causes reduced cell adhesion

Compound: CC(CCc1ccccc1)NCC(O)c1ccc(O)c(C(N)=O)c1 (stereo not shown) [Labetalol]
- EphA2 activation (agonist function) (EphA2 [1]): EphA2 agonists
- BIAcore binding to EphA2 [4]: binding curves for interaction of labetalol with EphA2 kinase

Compound: N#CC(=C(/N)Sc1ccccc1N)/C(C#N)=C(/N)Sc1ccccc1N [U1026]
- EphA2 expression (EphA2 [5]): reduced EphA2 expression

Compound: EP1-Fc: recombinant EP1 fused to Fc, dimeric (RRCVWSTNVYSMEPALFCAA; not fully specified; cysteine pairing not given here; also: fused to Fc, dimeric)
- EphA2 tyrosine phosphorylation (EphA2 [1]): induces dose-dependent EphA2 tyrosine phosphorylation
- targeting to tumors (GFP-PC-3 cells; frozen sections stained with anti-human Fc): target to GFP-PC-3 tumors
- tumor growth after three weeks of treatment (GFP-PC-3 cells; i.p.): lack of effects after three weeks of treatment
- s.c. tumor growth (GFP-PC-3 cells; i.p.): moderate inhibitory effects on PC3 xenograft growth
- s.c. tumor growth (GFP-PC-3 cells; i.p., listed as Ep1-Fc): could have suppressive effect on the growth of prostate cancer xenograft
- clonal cell growth [6]: Inhibition of cell growth
- specificity of binding among cell surface proteins (EphA2 [2]): only bound to EphA2
- cell proliferation / growth (PC3 or pRNS-1 cells): Inhibition of cell proliferation
- cell morphology (rounding) (PC3 cells): adapt a round morphology; also recorded: induced PC3 cell rounding

Compound: CC(CCc1ccc(O)cc1)NCCc1ccc(O)c(O)c1 (stereo not shown) [Dobutamine]
- EphA2 activation (agonist function) (EphA2 [1]): EphA2 agonists

Compound: GST-EP1: recombinant EP1 fused to GST (RRCVWSTNVYSMEPALFCAA; cysteine pairing not given here; also: fused to GST)
- EphA2 tyrosine phosphorylation (EphA2 [1]): induces dose-dependent EphA2 tyrosine phosphorylation

Compound: COc1cc2nc(N3CCN(C(=O)C4COc5ccccc5O4)CC3)nc(N)c2cc1OC (stereo not shown) [Doxazosin]
- EphA2 activation (agonist function) (EphA2 [1]): EphA2 agonists
- BIAcore binding to EphA2 [4]: direct binding

Compound: (di-meo-isoquinolin-1-ylmethyl)-et-di-meo-pyrido(2,1-a)isoquinolin, hydrobromide S120103
- EphA2 activation (agonist function) (EphA2 [1]): EphA2 agonistic compound

Reference: patent US10434074B2, “Peptide and small molecule agonists of EPHA and uses thereof” (CASE WESTERN RESERVE UNIVERSITY, priority 2004, dated 2019)
